Test results: paper PMC10055926
“Also recorded” adds a separate entry of the source.

Tested on: SARS-CoV-2 Omicron variant (B.1.1.529-BA.1)
Assay type: cell-based
Details: up to 20 µM; Omicron B.1.1.529-BA.1

Structure (SMILES): C[C@H](NC(=O)[C@H](Cc1ccc(O)cc1)NC(=O)OCc1ccccc1)C(=O)C=[N+]=[N-]
- inhibitory activity against SARS-CoV-2 Omicron in HNEC ALI cultures (in words): no inhibitory activity; also recorded: unable to block entry
